The record followed here is a melting point compilation (Tetko et al.; mined from patent text by program, amines drawn as free bases though some values may be those of a salt).

Some results are limits rather than exact numbers.

Compound `CC(=O)OC1C(N2CCCCC2)CC2C3CCC4CC(O)C(N5CCOCC5)CC4(C)C3CCC21C` (configuration not stated) came in with a melting point of 177 to 184 °C.
Regarding `O=C(O)CC1c2ccccc2C(=O)N1c1ccccc1` (configuration not stated), the melting point lay within 204 to 205 °C.
To `CC12CCC(C1)C1(C)Oc3ccc(C=O)cc3C21C` (configuration not stated) belongs 145 °C; to `C#CC1(OC(=O)NCc2ccccc2)CCN(CCC=C(c2ccc(F)cc2)c2ccc(F)cc2)CC1`, 53 to 54 °C; to `CS(=O)(=O)c1ccc(-c2cnn(-c3ccc(F)c(Cl)c3)c(=O)c2-c2ccc(Cl)cc2)cc1`, 205 °C.
Under `CN1C(=O)CNC(c2cccc(Cl)c2)c2cc(C(=O)c3ccc(Cl)cc3)ccc21` (configuration not stated) stands 177 °C; under `CC1=NC(NC(=O)Nc2cccc(C#N)c2)C(=O)N(CC(=O)C(C)(C)C)c2ccccc21` (configuration not stated), 246 to 247 °C.
Compound `O=C(O)c1cc2cc(Cl)ccc2[nH]c1=O` gave a melting point greater than 310 °C.
To `CCOCCNC(=O)c1ccn2nc(-c3ccccc3)c(-c3ccc(=O)n(C(C)C)n3)c2c1` belongs 149 to 150 °C; to `O=C(O)c1cc(OCc2ccccn2)c(C(=O)c2ccccc2)c([N+](=O)[O-])c1`, 224 to 225 °C; to `CCN(CC)CCN1Cc2nc3ccccc3c(=O)n2-c2ccccc2C1=O`, 117 to 119 °C.
Under `Cc1cc(-c2oncc2CCl)ccc1Cl` stands 84 to 85 °C; under `COC(=O)Cc1c(C(=O)OC)ccn1CCCl`, 110 to 111 °C; under `OC(CNc1ccc(Cl)cc1Cl)Cn1ccnc1` (configuration not stated), 107 to 109 °C.
`COc1ccc(-c2coc(C#N)cc2=O)cc1` returned a melting point of 165 to 167 °C.
To `CCCCNC(=O)Nc1ccccc1C(=O)NCC1CCN(C(c2ccccc2)c2ccccc2)CC1` belongs 197 to 198 °C; to `Cc1cccc2c(Nc3ccc(OCCN(CCCl)CCCl)cc3)c3cccc(C(=O)NCCN(C)C)c3nc12`, 185 to 186 °C.
Take `CCCc1nc2cc3c(cc2[nH]1)NC(=O)C3C` (configuration not stated): the melting point was 235 to 238 °C.
Under `CNC(=O)CCN1c2ccccc2N2CCc3cccc(c32)C1C` (configuration not stated) stands 143 to 145 °C; under `COc1cc(C)nc2c(OCc3c(Cl)ccc(NC(=O)CN4C(=O)c5ccccc5C4=O)c3Cl)cccc12`, 184 to 185 °C.
In turn, `CCCCCCCCSC(=O)n1cc2cc(C)c(NC(=O)c3cc(OC)nn3-c3ncccc3Cl)c(C(=O)NC(C)C)c2n1` returned a melting point of 98 to 102 °C.
Under `Cc1noc(NS(=O)(=O)c2cc(Cl)c(Cl)s2)c1Br` stands 135 to 138 °C; under `CCOCc1cc2ccccc2oc1=O`, 95 to 96 °C.
Take `Cc1nc(N2CCCC(=Cc3cccnc3)C2=O)sc1C(=O)NCc1ccccc1`: the melting point is 206 to 208 °C.
Compound `Cc1ccc(S(=O)(=O)NCC(NS(=O)(=O)c2ccc(C)cc2)c2ccccc2)cc1` (configuration not stated) registered a melting point of 148 to 149 °C.
To `O=[N+]([O-])c1cc(F)ccc1OC1CCC(O)CC1` (configuration not stated) belongs 151 °C; to `CCOC(=O)c1cnc2nc(OCC)ccc2c1O`, 175 to 179 °C.
Take `O=C(O)C(O)Cn1nnnc1S` (configuration not stated): the melting point is 143 to 146 °C.
To `CC(=O)NCc1ccc(Cl)nc1` belongs 76 to 77 °C; to `CCc1nccn1CC1CC2c3cccc4[nH]cc(c34)CC2N(C)C1` (configuration not stated), 232 to 237 °C; to `CS(=O)(=O)C(=C1CN(C(c2ccccc2)c2ccccc2)C1)c1cc(Cl)cc(Cl)c1`, 204 °C.
The compound `CC1Cc2cc(Cl)c(Cl)cc2C(c2ccc([N+](=O)[O-])cc2)O1` (configuration not stated) had a melting point of 189 to 191 °C.
Regarding `Cc1nc(Sc2ccccn2)sc1CC(=O)O`, the melting point lay in the range of 140 to 142 °C.
To `COc1oc(=O)n(-c2ccccc2)c1C` belongs 81 to 83.5 °C; to `CC(=O)NCCCn1c(-c2ccc(Br)cc2)csc1=Nc1ccccc1`, 155 to 157 °C.
In turn, `CC1(c2ccccc2)Cc2cc(O)c(Cl)c(Cl)c2C1=O` (configuration not stated) displayed a melting point of 194 to 196 °C.
`CC(C)c1oc(C=Cc2ccccc2)nc1CC(=O)O` came in with a melting point of 155 to 156 °C.
To `N=C(Nc1ccc(CCN)cc1)c1cccs1` belongs 134 to 137 °C; to `COc1cc(NC(=O)OCCCN2CCC(c3nn(C)c4cc(F)ccc34)CC2)cc(OC)c1OC`, 85 to 88 °C.
In the case of `O=[N+]([O-])c1ccc(CCNCCc2ccc([N+](=O)[O-])cc2)cc1`, the melting point was 86 to 91 °C.
To `CC(C)(C)OC(=O)N1CC[C@@H](C(=O)N[C@@H](CC(=O)OCc2ccccc2)C(=O)N[C@@H](Cc2ccccc2)C(=O)OCc2ccccc2)C1` belongs 84 to 85 °C; to `COC(=O)COc1cccc2c(CCO)c(CCOC(C)=O)oc12`, 80 to 81 °C; to `CC(=O)OCCC(=O)C1CCC2C3CCC4CC(O)CCC4(C)C3C(=O)CC12C` (configuration not stated), 113 to 115 °C.
On to `CN1CCC(NC(=O)c2cc(Cl)ccc2F)CC1`, for which the melting point was in the range of 143 to 145 °C.
Regarding `COC(=O)c1ccc2oc(C(=O)C(Cc3ccccc3)NC(=O)Cn3c(-c4ccc(F)cc4)ncc(N)c3=O)nc2c1` (configuration not stated), the melting point was 208 to 213 °C.
`O=c1[nH]c2c([nH]1)-c1ccncc1CC2`: the melting point was greater than 310 °C.
For the compound `CN1CCN(C2=CCCc3ccc(OCc4ccc(Cl)cc4)cc32)CC1`, the melting point fell in the range of 115 to 116 °C.
Under `CC1(O)c2ccccc2CC12CCC1(CC2)OCCO1` (configuration not stated) stands 140 to 143 °C; under `CC(C)(C(=O)O)c1cn2nc(CCCN3CCN(C(c4ccccc4)c4ccccc4)CC3)ccc2n1`, 176 to 178 °C.
Under `Cc1cc2ccc(CCCCCN3CCN(c4cccc(Cl)c4Cl)CC3)nc2[nH]c1=O` stands 157 to 158 °C; under `NS(=O)(=O)c1cc2c(s1)S(=O)(=O)N(CCO)C(CN1CCOCC1)=C2`, 104 to 108 °C; under `CCOC(=O)COc1cc(OCc2ccccc2)ccc1C(=O)CC`, 81.5 to 82 °C.
Under `CCCc1c(C(=O)C(C)C)c2ccc(C(=O)O)cc2n1Cc1ccccc1C#N` stands 214 to 215 °C; under `COc1cc(C=CC=C2SC(=O)NC2=O)cc(OC)c1OCc1ccccc1`, 217 to 218 °C; under `O=C1CCC(=O)N1CCc1ccc(OC(F)(F)F)cc1`, 91 to 93 °C.
In the case of `O=S1(=O)N=C(NC2CCCC2)Nc2cc(F)ccc21`, the melting point lay within 295 to 298 °C.
The compound `COc1ccccc1Cc1ccc(N)c(C#N)c1` returned a melting point of 77.5 to 78.5 °C.
In turn, `Cc1cc(O)c(N)c([N+](=O)[O-])c1C` showed a melting point of 176 to 178 °C.
In the case of `CC(=O)c1cc(Nc2ccn(-c3ccccc3)n2)ccc1O`, the melting point is 165 to 167 °C.
Compound `CCC(=O)On1c(=O)c(=O)[nH]c2cc(C(F)(F)F)c(C#N)cc21` yielded a melting point of 227 °C.
Turning to `CN1C(c2nnc(C3CCCCC3)o2)=C(OC(=O)c2ccccc2)c2ccccc2S1(=O)=O`, the melting point was 157 °C.
`Cc1ccccc1C(C#N)=C1C=CC(=NOP(=O)(c2ccccc2)c2ccccc2)S1` gave a melting point of 165 to 167 °C.
Under `Fc1cccc(F)c1CN[C@H]1CCCN[C@H]1c1ccccc1` (relative stereo) stands greater than 260 °C; under `CCCCCCCCCCNC(=O)CCCO`, 74 to 75 °C.
For `Cc1onc(-c2ccccc2)c1C(=O)NCCCN1CCN(c2cc(F)ccc2OCC(F)(F)F)CC1`, the melting point was 123 to 125 °C.
`C[C@H]1C(=O)C[C@@H]2C[C@H]1OO[C@]2(C)/C=C\c1ccc(C(F)(F)F)cc1C(F)(F)F`: the melting point was 124 °C.
Under `COC(=O)C(=O)c1ccc(OCCSc2ccc3ccccc3c2)cc1` stands 63 to 65 °C; under `CCCC(C)(CC)C(=O)O[C@H]1C[C@H](O)C=C2C=C[C@H](C)[C@H](CC[C@@H]3C[C@@H](O)CC(=O)O3)[C@H]21` (some centres not stated), 126 to 128 °C; under `O=C(O)c1cn2c3c(c(N4CCN(Cc5ccccc5)CC4)ccc3c1=O)CCC2`, 274 to 278 °C.
In turn, `CC(=O)OCOC(=O)c1oc(-c2ccccc2)cc(=O)c1Br` yielded a melting point of 121 °C.
`CCOC(=O)Cc1sc(Sc2cc(C(=O)OC)c3ccccc3n2)nc1C`: the melting point was 128 to 131 °C.
To `O=C(c1ccc(F)cc1C(F)(F)F)N1Cc2cccnc2Nc2ccccc21` belongs 183 to 185 °C; to `CNc1nc(-c2ccccc2)c(-c2nc3ccccc3c(=O)n2-c2ccccc2)s1`, 224 to 225 °C; to `Cc1cc(C)c(-c2csc3c(Cl)cc(C)nc23)c(C)c1`, 129 to 131 °C.
As to `CC(C)(C)OC(=O)CN1C(=O)[C@@H](NC(=O)OC(C)(C)C)CCc2ccccc21`, the melting point lay in the range of 145 to 147 °C.
With `O=C1NC(=O)c2ccccc2C1=CNc1ccc(-c2ccccc2)cc1`, the melting point lay within 261 to 262 °C.
For the compound `COC(=O)Cc1ccc(OCCNC(=O)C2Cc3ccccc3N2S(=O)(=O)c2ccc(-c3cc(C(F)(F)F)ccc3Cl)cc2)c(F)c1` (configuration not stated), the melting point fell in the range of 56 to 62 °C.
Under `C=C1[C@H](CO)[C@H](O)[C@H](O)[C@H]1OCc1ccccc1` stands 122 to 124 °C.
`CC1=C(C(=O)OC(C)(C)C)C(c2cccc(F)c2F)C(C(=O)OC(C)(C)C)=C(C)N1`: the melting point was in the range of 192 to 194 °C.
To `COC(=O)C1=C(N)CCC(C#N)(c2ccc(OC)c(OCC3CC3)c2)C1` (configuration not stated) belongs 164 to 165 °C.
`CCCc1sc(-c2nccs2)c2c1C(=O)CC(C)(C)C2` came in with a melting point of 69 to 72 °C.
To `Cc1ccc2c(c1)Cn1ccnc1N2` belongs 265 °C; to `O=[N+]([O-])c1cc(Cl)c(Cl)cc1N[C@@H]1C[C@H](CO)[C@@H](O)[C@H]1O`, 179 to 181 °C; to `CCS(=O)(=O)c1ccc(C(=O)O)c(Cl)c1O`, 188 to 192 °C.
Consider `Cc1ccc(OC(=O)n2c3c(c(=O)n(C4CCCCO4)c2=O)CCC3)cc1` (configuration not stated), for which the melting point amounted to 136 °C.
Regarding `COC(=O)c1ccc(C(c2ccccc2)(c2ccccc2)c2ccccc2)cn1`, the melting point was 160 to 164 °C.
`O=S(=O)(Oc1ccccc1)c1ccc(O)cc1` registered a melting point of 114 to 116 °C.

The melting point is the temperature, or range, at which the solid turns liquid.
